Reference: ChEMBL document CHEMBL4266018, “Discovery and Characterization of AZD6738, a Potent Inhibitor of Ataxia Telangiectasia Mutated and Rad3 Related (ATR) Kinase with Application as an Anticancer Agent” (J Med Chem, 2018)
Each block holds one compound with its values, some of them ahead of it.

Legend:
physchem = details: octanol/phosphate buffer, pH 7.4
[1] = Plasma concentration in Swiss nu/nu mouse xenografted with human LoVo cells at 12.5 mg/kg, po bid after 8 hrs; assay type: ADME, organism-based
in vitro [2] = details: human, hepatocytes
in vitro [3] = details: rat, hepatocytes
[4] = Apparent permeability across apical to basolateral side in human Caco2 cells at 10 uM at pH 6.5; assay type: ADME, cell-based; details: Caco-2, pH 6.5
[5] = Plasma concentration in Swiss nu/nu mouse xenografted with human LoVo cells at 25 mg/kg, po qd after 8 hrs; assay type: ADME, organism-based
Rattus norvegicus [6] = assay: Dose normalized AUC in Han-Wistar rat at 4 umol/kg, po; assay type: ADME, organism-based; details: in vivo
Canis familiaris = assay: Clearance in Beagle dog at 10.5 umol/kg, iv or […], po relative to liver blood flow; assay type: ADME, organism-based, Canis lupus familiaris; details: in vivo
[7] = Volume of distribution at steady state in Beagle dog at 10.5 umol/kg, iv or […], po; assay type: ADME, organism-based, Canis lupus familiaris; details: in vivo, read-out: Vdss
[8] = Plasma concentration in Swiss nu/nu mouse xenografted with human LoVo cells at 75 mg/kg, po qd after 8 hrs; assay type: ADME, organism-based
[9] = Oral bioavailability in Beagle dog at […]; assay type: ADME, organism-based, Canis lupus familiaris; details: in vivo
[10] = Elimination half life in human; assay type: ADME, organism-based; details: in vivo, read-out: beta t1/2 (converted)
[11] = Apparent permeability across apical to basolateral side in human Caco2 cells at 10 uM at pH 7.4; assay type: ADME, cell-based; details: Caco-2, pH 7.4
[12] = Plasma concentration in Swiss nu/nu mouse xenografted with human LoVo cells at 25 mg/kg, po bid after 8 hrs; assay type: ADME, organism-based
Rattus norvegicus [13] = assay: Dose normalized AUC in Han-Wistar rat at 10 umol/kg, po; assay type: ADME, organism-based; details: in vivo
[14] = Volume of distribution at steady state in Han Wistar rat at 8.55 umol/kg, iv or 20.3 umol/kg, po; assay type: ADME, organism-based; details: in vivo, read-out: Vdss
[15] = Intrinsic clearance in human hepatocytes assessed as per million cells at 1 uM; assay type: ADME, cell-based, Hepatocyte; details: read-out: CLH
[16] = Oral bioavailability in Han Wistar rat at 20.3 umol/kg; assay type: ADME, organism-based; details: in vivo
[17] = Plasma concentration in Swiss nu/nu mouse xenografted with human LoVo cells at 50 mg/kg, po qd after 8 hrs; assay type: ADME, organism-based
Rattus norvegicus [18] = assay: Clearance in Han Wistar rat at 8.55 umol/kg, iv or 20.3 umol/kg, po relative to liver blood flow; assay type: ADME, organism-based; details: in vivo

logD at 3 h, 10 µM (physchem): 2.1
Compound: CNc1nc2ccccc2n1-c1nc(N2CCOC[C@H]2C)cc(C2([S@@](C)(=N)=O)CC2)n1

logD at 3 h, 10 µM (physchem): 1.8
Compound: CS(=O)(=O)C1(c2cc(N3CCOCC3)nc(-c3cncc4[nH]ccc34)n2)CC1

logD at 3 h, 10 µM (physchem): 2.2
Compound: CS(=O)(=O)C1(c2cc(N3CCOCC3)nc(-c3ccnc4[nH]ccc34)n2)CC1

logD at 3 h, 10 µM (physchem): 2.5
Compound: C[C@@H]1COCCN1c1cc(C2(S(C)(=O)=O)CC2)nc(-n2c(N)nc3ccccc32)n1

hepatocyte CLint at 1 µM (in vitro [2]): < 3 µL/min/1e6 cells
hepatocyte CLint at 1 µM (in vitro [3]): 11 µL/min/1e6 cells
Papp A→B at 10 µM [11]: 8 ×10⁻⁶ cm/s
AUC/dose (Rattus norvegicus [13]): 0.35 µM·h
concentration at 8 h [17]: 940 nM
logD at 3 h, 10 µM (physchem): 2.1
Compound: CNc1nc2ccccc2n1-c1nc(N2CCOC[C@H]2C)cc(C2([S@](C)(=N)=O)CC2)n1

logD at 3 h, 10 µM (physchem): 2.2
Compound: CS(=O)(=O)C1(c2cc(N3CCOCC3)nc(-n3c(N)nc4ccccc43)n2)CC1

hepatocyte CLint at 1 µM (in vitro [2]): < 3 µL/min/1e6 cells
hepatocyte CLint at 1 µM (in vitro [3]): 25 µL/min/1e6 cells
Papp A→B at 10 µM [11]: 53 ×10⁻⁶ cm/s
concentration at 8 h [12]: 8300 nM
AUC/dose (Rattus norvegicus [13]): 0.4 µM·h
logD at 3 h, 10 µM (physchem): 2.8
Compound: CNc1nc2ccccc2n1-c1nc(N2CCOC[C@H]2C)cc(C2(S(C)(=O)=O)CC2)n1

logD at 3 h, 10 µM (physchem): 2.3
Compound: CS(=O)(=O)C1(c2cc(N3CCOCC3)nc(-c3cccc4[nH]ccc34)n2)CC1

logD at 3 h, 10 µM (physchem): 1.8
Compound: CC(=O)Nc1nc2ccccc2n1-c1nc(N2CCOC[C@H]2C)cc(C2(S(C)(=O)=O)CC2)n1

logD at 3 h, 10 µM (physchem): 2.2
Compound: CS(=O)(=O)C1(c2cc(N3CCOCC3)nc(-c3cccc4[nH]cnc34)n2)CC1

Continued, compound first:

Compound: C[C@@H]1COCCN1c1cc(C2(S(C)(=N)=O)CC2)nc(-c2cncc3[nH]ccc23)n1 (some centres undefined)
logD at 3 h, 10 µM (physchem): 1.4

Compound: C[C@@H]1COCCN1c1cc(C2(S(C)(=O)=O)CC2)nc(-c2cncc3[nH]ccc23)n1
concentration at 8 h [1]: 220 nM
hepatocyte CLint at 1 µM (in vitro [2]): < 3 µL/min/1e6 cells
hepatocyte CLint at 1 µM (in vitro [3]): 10 µL/min/1e6 cells
Papp A→B at 10 µM [4]: 8 ×10⁻⁶ cm/s
concentration at 8 h [5]: 780 nM
logD at 3 h, 10 µM (physchem): 2.1
AUC/dose (Rattus norvegicus [6]): 0.08 µM·h

Compound: CS(=O)(=O)C1(c2cc(N3CC4CCC(C3)O4)nc(-c3cncc4[nH]ccc34)n2)CC1
logD at 3 h, 10 µM (physchem): 2.2

Compound: C[C@H]1COCCN1c1cc(C2(S(C)(=O)=O)CC2)nc(-c2cncc3[nH]ccc23)n1
logD at 3 h, 10 µM (physchem): 2.2

Compound: CS(=O)(=O)C1(c2cc(N3C4CCC3COC4)nc(-c3cncc4[nH]ccc34)n2)CC1
logD at 3 h, 10 µM (physchem): 2.1

Compound: C[C@@H]1COCCN1c1cc(C2([S@](C)(=N)=O)CC2)nc(-c2cc[nH]c3nccc2-3)n1 [CERALASERTIB]
CL (Canis familiaris): 10%
Vd [7]: 1 L/kg
concentration at 8 h [8]: 2600 nM
bioavailability [9]: 100%
hepatocyte CLint at 1 µM (in vitro [2]): < 3 µL/min/1e6 cells
half-life [10]: 11 h
hepatocyte CLint at 1 µM (in vitro [3]): < 3.5 µL/min/1e6 cells
Papp A→B at 10 µM [11]: 12 ×10⁻⁶ cm/s
concentration at 8 h [12]: 740 nM
AUC/dose (Rattus norvegicus [13]): 0.8 µM·h
Papp A→B at 10 µM [4]: 6.8 ×10⁻⁶ cm/s
Vd [14]: 3.1 L/kg
hepatocyte CLint at 1 µM [15]: 2 µL/min/1e6 cells
bioavailability [16]: 67%
concentration at 8 h [17]: 2200 nM
CL (Rattus norvegicus [18]): 22%
logD at 3 h, 10 µM (physchem): 1.9

Compound: CS(=O)(=O)C1(c2cc(C3=CCOCC3)nc(-c3cccc4[nH]ccc34)n2)CC1
logD at 3 h, 10 µM (physchem): 2.9

Compound: C[C@@H]1COCCN1c1cc(C2(S(C)(=O)=O)CC2)nc(-c2cccc3[nH]ccc23)n1
Papp A→B at 10 µM [11]: 37 ×10⁻⁶ cm/s
concentration at 8 h [12]: 1800 nM
concentration at 8 h [17]: 3500 nM
logD at 3 h, 10 µM (physchem): 2.5
AUC/dose (Rattus norvegicus [6]): 1 µM·h

Compound: C[C@@H]1COCCN1c1cc(C2([S@+](C)[O-])CC2)nc(-c2ccnc3[nH]ccc23)n1
logD at 3 h, 10 µM (physchem): 2.5

Compound: C[C@@H]1COCCN1c1cc(C2([S@@](C)(=N)=O)CC2)nc(-c2ccnc3[nH]ccc23)n1
logD at 3 h, 10 µM (physchem): 1.8

Compound: C[C@@H]1COCCN1c1cc(C2(S(C)(=O)=O)CC2)nc(-c2ccnc3[nH]ccc23)n1
logD at 3 h, 10 µM (physchem): 2.6

Compound: C[C@@H]1COCCN1c1cc(C2([S@@+](C)[O-])CC2)nc(-c2ccnc3[nH]ccc23)n1
logD at 3 h, 10 µM (physchem): 2.5

Compound: CNC(=O)c1cc(-c2nc(N3CCOCC3)cc(C3(S(C)(=O)=O)CC3)n2)c2cc[nH]c2c1
logD at 3 h, 10 µM (physchem): 1.6
